Key:
MCF-7 (breast cancer) = test: MTT cell viability assay, MCF-7; format: cell-based, human; conditions: Homo sapiens, MCF7, 72 h, mean ± SD
Protocol: (§1) All of the newly synthesized compounds 9–24 were evaluated for their effects on cell viability in three human cancer cell lines: HCT-116 (colon cancer), HeLa (cervical cancer), and MCF-7 (breast cancer). Cisplatin was used as reference drug. […] Considering the activity of derivatives 9–12, 15, 17, 18, and 21–24, it can be noticed that phenyl group as R^3 bring an increase of cytotoxicity in comparison with methyl in place of R^3. However, this impact seems to be the most important for compounds with the bulky group in R^1 and generally, it is less for a set of derivatives with methyl group substituted in R^1 (9–12).
All chemicals, if not stated otherwise, were obtained from Sigma-Aldrich (St. Louis, MO, USA). The MCF-7 and HeLa cell lines were purchased from Cell Lines Services (Eppelheim, Germany), the HCT-116 cell line was purchased from ATCC (ATCC-No: CCL-247). Cells were cultured in Dulbecco’s modified Eagle’s medium (DMEM) supplemented with 10% fetal bovine serum, 2 mM glutamine, 100 units/cm^3 penicillin, and 100 μg/cm^3 streptomycin. Cultures were maintained in a humidified atmosphere with 5% CO2 at 37 °C in an incubator (Heraceus, HeraCell).
(§2) Cell viability was determined using the MTT (3-(4,5-dimethylthiazol-2-yl)-2,5-diphenyltetrazolium bromide) assay. Cells were seeded in 96-well plates at a density of 5 × 10^3 cells/well and treated for 72 h with the examined compounds in the concentration range 1–100 μM (1, 10, 25, 50, and 100 μM). Following treatment, MTT (0.5 mg/cm^3) was added to the medium and cells were further incubated for 2 h at 37 °C. Cells were lysed with DMSO and the absorbance of the formazan solution was measured at 550 nm with a plate reader (Victor, 1420 multilabel counter). […] The experiment was performed in triplicate. Values are expressed as the mean ± SD of at least three independent experiments.

HCT-116, HeLa, MCF-7 = test: MTT assays, mean over three tested cell lines; format: cell-based; conditions: Homo sapiens, mean of HCT-116, HeLa, read-out: mean IC50 against three tested cell lines
Protocol: as §1, §2

MOLT-4 = test: NCI-60 single dose screen, MOLT-4; format: cell-based; conditions: Homo sapiens, Leukemia, single concentration 10^−5 M, read-out: IGP (inhibition growth percent) MOLT-4
Protocol: (§3) Aside from above, compounds 9–14 and 17–24 were also submitted to National Cancer Institute and evaluated for the cytotoxic effects toward 60 cell lines at a single dose of 10 μM (Table 2). […] As it was summarized in Table 2, leukemia RPMI-8226 and NSCLC A549/ATCC were most sensitive to compounds 18, 22, and 24. These derivatives in 10 μM concentration inhibited the growth of approximately 50% cells belonging to the above mention cell lines.
(§4) Cytotoxicity evaluation of compounds 9–14 and 17–24 was performed at the National Cancer Institute according to NCI-60 DTP human tumor cell line screen procedure.

RPMI-8226 = test: NCI-60 single dose screen, RPMI-8226; format: cell-based; conditions: Homo sapiens, RPMI-8226, Leukemia; single concentration 10^−5 M; read-out: IGP (inhibition growth percent) RPMI-8226
Protocol: as §3, §4

PC-3 = test: NCI-60 single dose screen, PC-3; format: cell-based; conditions: Homo sapiens, Prostate cancer, single concentration 10^−5 M, read-out: IGP (inhibition growth percent) PC-3
Protocol: as §3, §4

MCF-7 = test: NCI-60 single dose screen, MCF-7; format: cell-based; conditions: Homo sapiens, MCF7; Breast cancer; single concentration 10^−5 M; read-out: IGP (inhibition growth percent) MCF-7
Protocol: as §3, §4

Row | Compound | IC50 (MCF-7 (breast cancer)) [µM] | IC50 (HCT-116, HeLa, MCF-7) [µM] | inhibition at 10 µM (MOLT-4) [%] | inhibition at 10 µM (RPMI-8226) [%] | inhibition at 10 µM (PC-3) [%] | inhibition at 10 µM (MCF-7) [%]
1 | O=C(Nc1ccccc1)c1cc(S(=O)(=O)Nc2nc(-c3ccccc3)c3ccccc3n2)c(SCc2ccccc2)cc1Cl [Compound 18, 2-Benzylthio-4-chloro-5-phenylcarbamoyl-N-(4-phenylquinazolin-2-yl)benzenesulfonamide] | 46 ± 1 | 44.7 | 36 | ~50 | 24 | 14
2 | Cc1ccc(NC(=O)c2cc(S(=O)(=O)Nc3nc(-c4ccccc4)c4ccccc4n3)c(SCc3ccccc3)cc2Cl)cc1 [Compound 24, 2-Benzylthio-4-chloro-5-(4-methylphenylcarbamoyl)-N-(4-phenylquinazolin-2-yl)benzenesulfonamide] | 52 ± 3 | 45.7 | 21 | ~50 | 49 | 23
3 | O=C(Nc1ccc(Cl)cc1)c1cc(S(=O)(=O)Nc2nc(-c3ccccc3)c3ccccc3n2)c(SCc2ccccc2)cc1Cl [Compound 22, 2-Benzylthio-4-chloro-5-(4-chlorophenylcarbamoyl)-N-(4-phenylquinazolin-2-yl)benzenesulfonamide] | 53 ± 1 | 44.7 | 52 | ~50 | 44 | 20
